From PMC5444726, “A CD44-specific peptide, RP-1, exhibits capacities of assisting diagnosis and predicting prognosis of gastric cancer” (Oncotarget, 2017)

System: CD44 in gastric carcinoma and surrounding tissues
Experiment: Immunohistochemistry of human gastric cancer tissue microarray
Conditions: for RP-1 staining negative, number (%) / RP-1 staining positive, number (%): % of all 100 cases
Experimental: Prepared paraffin-embedded sections were deparaffinized, rehydrated, retrieved and blocked with 5% BSA (w/v) in PBS at ambient temperature for 30 min. Then, sections were incubated with 100 μM biotin labeled RP-1 peptide or human specific rabbit anti-CD44 monoclonal antibody (1:200, ZSGB-BIO, Beijing, China) overnight at 4°C. After PBS washing for three times, sections were subsequently incubated with streptavidin-HRP (1:500, Proteintech, Wuhan, China) and goat anti-rabbit secondary antibody (1:300, BOSTER, Wuhan, China). Diaminobenzidine (DAB, ZSGB-BIO, Beijing, China) was used as a chromogen. Finally, the sections were counterstained with hematoxylin and mounted with neutral balsam.
Two TMA slides (Shanghai Outdo Biotech Co LTD, Shanghai, China), each containing 100 GC tissues samples (including 66 adenocarcinoma, 19 tubular adenocarcinoma, 8 mucinous adenocarcinoma, 2 undifferentiated carcinoma and 5 signet-ring cell carcinoma tissue samples) and 80 surrounding tissue samples from 100 patients, were used to evaluate the diagnostic and prognostic effects of RP-1. Samples were obtained from treatment-naive patients with written informed consent signed and dated. Age of the 100 patients with GC ranged from 32 to 81 years (mean, 64.4 years). Their clinicopathological characteristics were described in Table 2. The TNM stage of all patients with GC was assessed according to the American Joint Commission for Cancer (AJCC 7th edition) and tumors were histologically classified according to the criteria described by the World Health Organization (2000). The Medical Ethics Committee of Taizhou Hospital of Zhejiang province reviewed and approved all studies.
We performed immunohistochemical staining of TMA slides with RP-1 and human specific anti-CD44 monoclonal antibody by following the procedure described in the section Immunohistochemistry. The immunoreactivity was assessed with the immunohistochemistry score (HSCORE) system, which evaluated the staining intensity and percentages of positive cells stained at a specific magnitude of intensity. The HSCORE was calculated using the equation HSCORE=∑Pi(i) (i = 0, 1, 2, 3, Pi = 0–100%), in which i was the staining intensity (0, no staining; 1, weak staining; 2, moderate staining; 3, strong staining) and Pi was the percentage of positive cells on a scale of 0% to 100%. Positive cell count was assessed in 5 randomly selected fields of vision with a microscope (400×). All immunohistochemical evaluations were conducted by two independent pathologists […].
Receiver–operator curve (ROC) analysis was performed to determine the cut-off score for both RP-1 peptide and anti-CD44 monoclonal antibody. The score closest to the point (0.0, 1.0) with maximum sensitivity and specificity was identified as the cut-off score. Samples with a HSCORE of cut-off value or below were considered as negative staining, otherwise they were considered as positive staining.
Statistical analysis was conducted with SPSS software, version 21.0 (IBM, New York, USA). Kappa values were used to determine the consistency of histological and immunohistochemical results between RP-1 peptide and anti-CD44 antibody. Independent sample t-test was performed to decide existence of statistical difference in fluorescent intensity values between tumor and other normal organs. The ROC analysis was carried out to decide the cut-off value for RP-1 and anti-CD44 antibody. The area under the curve (AUC) was calculated to compare the diagnostic accuracy of RP-1 and anti-CD44 antibody. χ^2-test was used to assess the association between each clinicopathological variable and RP-1 staining intensity, while log-rank test was used for assessing the association between survival and each clinicopathological variable. Multiple Cox proportional hazards regression was performed to verify if RP-1 positivity can be used as an independent risk factor for prognosis of GC. […]

[1] = adenocarcinoma, 66 cases, P = 0.182
[2] = age > 64.4, 46 cases, P = 0.036
[3] = age ≤ 64.4, 54 cases, P = 0.036
[4] = all antibody results, total 100
[5] = clinicopathological stage I, 10 cases, P = 0.526
[6] = clinicopathological stage II, 32 cases, P = 0.526
[7] = clinicopathological stage III, 50 cases, P = 0.526
[8] = clinicopathological stage IV, 8 cases, P = 0.526
[9] = moderately differentiated, 69 cases, P = 0.066
[10] = mucinous adenocarcinoma, 8 cases, P = 0.182
[11] = poorly differentiated, 5 cases, P = 0.066
[12] = signet ring cell carcinoma, 4 cases, P = 0.182
[13] = tubular adenocarcinoma, 19 cases, P = 0.182
[14] = undifferentiated carcinoma, 3 cases, P = 0.182
[15] = well differentiated, 26 cases, P = 0.066

With “WHPWSYLWTQQA [RP-1, CD44-specific peptide … screened from a 12-mer phage peptide library]” the “RP-1 staining negative, number (%)” value [1] was 16 (16.0), the “RP-1 staining positive, number (%)” value [1] was 50 (50.0) and the “RP-1 staining negative, number (%)” value [2] was 12 (12.0). The “RP-1 staining positive, number (%)” value [2] was 34 (34.0), the “RP-1 staining negative, number (%)” value [3] was 15 (15.0) and the “RP-1 staining positive, number (%)” value [3] was 39 (39.0). For the same sequence, the “number of pericarcinomatous tissues RP-1 negative” value (all antibody results, total 80) was 70, the “number of pericarcinomatous tissues RP-1 positive” value (all antibody results, total 80) was 10 and the “number of gastric carcinoma tissues RP-1 negative” value [4] was 27. The “number of gastric carcinoma tissues RP-1 positive” value [4] was 73, the “number of gastric carcinoma tissues RP-1 negative” value (antibody negative) was 18 and the “number of gastric carcinoma tissues RP-1 positive” value (antibody negative) was 18. The “number of pericarcinomatous tissues RP-1 negative” value (antibody negative) was 56, the “number of pericarcinomatous tissues RP-1 positive” value (antibody negative) was 9 and the “number of gastric carcinoma tissues RP-1 negative” value (antibody positive) was 9. For the same sequence, the “number of gastric carcinoma tissues RP-1 positive” value (antibody positive) was 55, the “number of pericarcinomatous tissues RP-1 negative” value (antibody positive) was 14 and the “number of pericarcinomatous tissues RP-1 positive” value (antibody positive) was 1. The “RP-1 staining negative, number (%)” value [5] was 4 (4.0), the “RP-1 staining positive, number (%)” value [5] was 6 (6.0) and the “RP-1 staining negative, number (%)” value [6] was 10 (10.0). For the same sequence, the “RP-1 staining positive, number (%)” value [6] was 22 (22.0), the “RP-1 staining negative, number (%)” value [7] was 12 (12.0) and the “RP-1 staining positive, number (%)” value [7] was 38 (38.0). For the same sequence, the “RP-1 staining negative, number (%)” value [8] was 1 (1.0), the “RP-1 staining positive, number (%)” value [8] was 7 (7.0) and the “RP-1 staining negative, number (%)” value (died, 69 cases, P < 0.001) was 11 (11.0). For the same sequence, the “RP-1 staining positive, number (%)” value (died, 69 cases, P < 0.001) was 58 (58.0), the “RP-1 staining negative, number (%)” value (female, 36 cases, P = 0.895) was 10 (10.0) and the “RP-1 staining positive, number (%)” value (female, 36 cases, P = 0.895) was 26 (26.0). For the same sequence, the “RP-1 staining negative, number (%)” value (male, 64 cases, P = 0.895) was 17 (17.0), the “RP-1 staining positive, number (%)” value (male, 64 cases, P = 0.895) was 47 (47.0) and the “RP-1 staining negative, number (%)” value [9] was 21 (21.0). For the same sequence, the “RP-1 staining positive, number (%)” value [9] was 53 (53.0), the “RP-1 staining negative, number (%)” value [10] was 5 (5.0) and the “RP-1 staining positive, number (%)” value [10] was 3 (3.0). For the same sequence, the “RP-1 staining negative, number (%)” value (pM0, 91 cases, P = 0.260) was 26 (26.0), the “RP-1 staining positive, number (%)” value (pM0, 91 cases, P = 0.260) was 65 (65.0) and the “RP-1 staining negative, number (%)” value (pM1, 9 cases, P = 0.260) was 1 (1.0). For the same sequence, the “RP-1 staining positive, number (%)” value (pM1, 9 cases, P = 0.260) was 8 (8.0), the “RP-1 staining negative, number (%)” value (pN0, 27 cases, P = 0.101) was 6 (6.0) and the “RP-1 staining positive, number (%)” value (pN0, 27 cases, P = 0.101) was 21 (21.0). For the same sequence, the “RP-1 staining negative, number (%)” value (pN1, 15 cases, P = 0.101) was 8 (8.0), the “RP-1 staining positive, number (%)” value (pN1, 15 cases, P = 0.101) was 7 (7.0) and the “RP-1 staining negative, number (%)” value (pN2, 28 cases, P = 0.101) was 6 (6.0). The “RP-1 staining positive, number (%)” value (pN2, 28 cases, P = 0.101) was 22 (22.0), the “RP-1 staining negative, number (%)” value (pN3, 30 cases, P = 0.101) was 7 (7.0) and the “RP-1 staining positive, number (%)” value (pN3, 30 cases, P = 0.101) was 23 (23.0). The “RP-1 staining negative, number (%)” value (pT1, 8 cases, P = 0.399) was 3 (3.0), the “RP-1 staining positive, number (%)” value (pT1, 8 cases, P = 0.399) was 5 (5.0) and the “RP-1 staining negative, number (%)” value (pT2, 9 cases, P = 0.399) was 1 (1.0). For the same sequence, the “RP-1 staining positive, number (%)” value (pT2, 9 cases, P = 0.399) was 6 (6.0), the “RP-1 staining negative, number (%)” value (pT3, 66 cases, P = 0.399) was 20 (20.0) and the “RP-1 staining positive, number (%)” value (pT3, 66 cases, P = 0.399) was 45 (45.0). The “RP-1 staining negative, number (%)” value (pT4, 17 cases, P = 0.399) was 3 (3.0), the “RP-1 staining positive, number (%)” value (pT4, 17 cases, P = 0.399) was 17 (17.0) and the “RP-1 staining negative, number (%)” value [11] was 0 (0.0). For the same sequence, the “RP-1 staining positive, number (%)” value [11] was 11 (11.0), the “RP-1 staining negative, number (%)” value [12] was 1 (1.0) and the “RP-1 staining positive, number (%)” value [12] was 4 (4.0). For the same sequence, the “RP-1 staining negative, number (%)” value (survived, 31 cases, P < 0.001) was 16 (16.0), the “RP-1 staining positive, number (%)” value (survived, 31 cases, P < 0.001) was 15 (15.0) and the “HSCORE of GC samples versus surrounding tissue” value (t-test, P < 0.001) was “significantly higher”. For the same sequence, the “cell types stained positive” value (tissue microarray, gastric carcinoma and surrounding tissue) was “positive only in tumor cells”, the “RP-1 staining negative, number (%)” value [13] was 5 (5.0) and the “RP-1 staining positive, number (%)” value [13] was 14 (14.0). For the same sequence, the “RP-1 staining negative, number (%)” value [14] was 0 (0.0), the “RP-1 staining positive, number (%)” value [14] was 2 (2.0) and the “RP-1 staining negative, number (%)” value [15] was 6 (6.0). For the same sequence, the “RP-1 staining positive, number (%)” value [15] was 9 (9.0).
